Test results taken from publication PMC8091115, “Redundancy in Aromatic O-Demethylation and Ring-Opening Reactions in Novosphingobium aromaticivorans and Their Impact in the Metabolism of Plant-Derived Phenolics” (Applied and Environmental Microbiology, 2021).

Key:
[1] = target: T1, LigM (Novosphingobium aromaticivorans, UniProt Q2G4C6); experiment: HPLC-MS substrate depletion and product formation; format: biochemical; details: tetrahydrofolate as methyl acceptor, anaerobic, 30 C, phosphate buffer
T1 construct: gene Saro_2861; full length, N-terminal His8-TEV tag cleaved, from E. coli B834
T1 sequence (Q2G4C6 entry or part of it): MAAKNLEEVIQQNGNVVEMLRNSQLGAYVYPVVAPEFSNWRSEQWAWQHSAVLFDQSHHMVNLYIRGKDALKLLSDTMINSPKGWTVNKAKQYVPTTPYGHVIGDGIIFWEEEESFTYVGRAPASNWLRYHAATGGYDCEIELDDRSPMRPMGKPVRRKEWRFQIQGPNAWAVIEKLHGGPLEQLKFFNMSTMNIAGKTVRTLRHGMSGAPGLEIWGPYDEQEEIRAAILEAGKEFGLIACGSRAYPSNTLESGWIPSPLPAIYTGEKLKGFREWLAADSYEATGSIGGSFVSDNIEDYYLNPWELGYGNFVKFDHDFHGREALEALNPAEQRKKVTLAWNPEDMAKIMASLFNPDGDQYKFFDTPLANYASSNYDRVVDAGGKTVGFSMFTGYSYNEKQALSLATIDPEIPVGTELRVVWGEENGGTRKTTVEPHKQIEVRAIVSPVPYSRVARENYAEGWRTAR

[2] = target: T2, DesA (Novosphingobium aromaticivorans, UniProt Q2G5N3); experiment: HPLC-MS substrate depletion and product formation; format: biochemical; details: tetrahydrofolate as methyl acceptor, anaerobic, 30 C, phosphate buffer
T2 construct: gene Saro_2404; full length, N-terminal His8-TEV tag cleaved, from E. coli B834; b91 prints Saro_2402 (probable misprint, Saro_2404 everywhere else)
T2 sequence (Q2G5N3 entry or part of it): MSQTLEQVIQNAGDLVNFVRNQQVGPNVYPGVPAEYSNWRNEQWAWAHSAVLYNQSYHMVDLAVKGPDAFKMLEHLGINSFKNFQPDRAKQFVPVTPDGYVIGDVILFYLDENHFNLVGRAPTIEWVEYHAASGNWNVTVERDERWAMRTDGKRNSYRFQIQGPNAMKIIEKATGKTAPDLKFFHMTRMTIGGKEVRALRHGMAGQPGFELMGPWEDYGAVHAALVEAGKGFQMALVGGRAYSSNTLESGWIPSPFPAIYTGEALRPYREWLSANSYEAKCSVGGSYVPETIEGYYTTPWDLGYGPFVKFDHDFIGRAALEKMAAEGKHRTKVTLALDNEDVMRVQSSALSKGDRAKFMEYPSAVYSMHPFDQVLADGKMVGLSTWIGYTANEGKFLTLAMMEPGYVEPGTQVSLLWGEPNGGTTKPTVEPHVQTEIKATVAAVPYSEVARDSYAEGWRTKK

Row | Compound | HPLC-MS substrate depletion and product formation [1] | HPLC-MS substrate depletion and product formation [2]
1 | COc1cc(C(=O)O)ccc1O [vanillic acid] | able to convert 3-MGA into GA and vanillic acid into PCA at comparable rates | demethylated both syringic acid and, somewhat more slowly, vanillic acid
2 | COc1cc(C(=O)O)cc(O)c1O [3-MGA] | LigM protein of N. aromaticivorans was able to convert 3-MGA into GA | –
